Patent US12116343B2, “Inhibitors of APOL1 and methods of using same” (Vertex Pharmaceuticals Incorporated, priority 2020, dated 2024)

target: T1, G1 APOL1 (Homo sapiens, UniProt O14791, I384M/S342G); test: Acute APOL1 Thallium Assay with inducible stable clones of HEK 293 cells; type: cell-based; conditions: HEK 293 T-Rex cells expressing G1 APOL1; read-out: Thallium Assay (IC50)
T1 construct: expressed in transfected cells
T1 sequence (O14791 28-398 S342G/I384M): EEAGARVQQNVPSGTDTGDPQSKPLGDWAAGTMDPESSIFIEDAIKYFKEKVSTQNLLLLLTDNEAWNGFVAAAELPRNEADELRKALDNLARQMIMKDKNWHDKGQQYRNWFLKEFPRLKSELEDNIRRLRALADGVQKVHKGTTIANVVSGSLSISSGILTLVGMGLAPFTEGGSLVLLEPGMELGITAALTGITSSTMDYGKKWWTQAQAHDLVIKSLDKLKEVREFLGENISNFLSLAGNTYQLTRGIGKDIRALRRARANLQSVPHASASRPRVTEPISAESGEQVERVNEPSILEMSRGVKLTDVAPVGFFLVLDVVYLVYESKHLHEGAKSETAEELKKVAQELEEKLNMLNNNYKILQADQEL
Procedure, shortened: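 Tetracycline-inducible HEK293 T-Rex clone G1 DC3.25 expressing G1 APOL1, plated at 26000 cells/well in Opti-MEM with tetracycline induction. APOL1 pore activity read on FLIPR as fluorescence increase from Tl+ influx into cells loaded with a Tl+-sensitive AM-ester dye.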

Row | SMILES | IC50
1 | CC(O)(CO)CNC(=O)[C@H]1C[C@H](c2c(-c3ccc(F)cc3)[nH]c3c(F)cc(F)cc32)C1 (mixture of isomers) [Compound 216] | > 1 µM
2 | COCCNC(=O)[C@H]1C[C@H](c2c(-c3ccc(F)cc3)[nH]c3c(F)cc(F)cc32)C1 [Compound 12] | > 1 µM
3 | O=C(NC1CCOC1)[C@H]1C[C@H](c2c(-c3ccc(F)cc3)[nH]c3c(F)cc(F)cc32)C1 (stereo partly shown) [Compound 15] | > 1 µM
4 | COC1CC1NC(=O)[C@H]1C[C@H](c2c(-c3ccc(F)cc3)[nH]c3c(F)cc(F)cc32)C1 (stereo partly shown) [Compound 18] | > 1 µM
5 | O=C(N[C@H]1C[C@H](O)C1)[C@H]1C[C@H](c2c(-c3ccc(F)cc3)[nH]c3c(F)cc(F)cc32)C1 [Compound 20] | > 1 µM
6 | Cn1ccc(NC(=O)[C@H]2C[C@H](c3c(-c4ccc(F)cc4)[nH]c4c(F)cc(F)cc43)C2)n1 [Compound 22] | > 1 µM
7 | Cc1cnc(NC(=O)[C@H]2C[C@H](c3c(-c4ccc(F)cc4)[nH]c4c(F)cc(F)cc43)C2)o1 [Compound 24] | > 1 µM
8 | CC(C)C(CO)NC(=O)[C@H]1C[C@H](c2c(-c3ccc(F)cc3)[nH]c3c(F)cc(F)cc32)C1 (stereo partly shown) [Compound 29] | > 1 µM
9 | CC(C)CC(NC(=O)[C@H]1C[C@H](c2c(-c3ccc(F)cc3)[nH]c3c(F)cc(F)cc32)C1)C(N)=O (stereo partly shown) [Compound 30] | > 1 µM
10 | O=C(NCCn1cccc1)[C@H]1C[C@H](c2c(-c3ccc(F)cc3)[nH]c3c(F)cc(F)cc32)C1 [Compound 34] | > 1 µM
11 | Cc1ccn(CCNC(=O)[C@H]2C[C@H](c3c(-c4ccc(F)cc4)[nH]c4c(F)cc(F)cc43)C2)n1 [Compound 35] | > 1 µM
12 | Cc1cc(CNC(=O)[C@H]2C[C@H](c3c(-c4ccc(F)cc4)[nH]c4c(F)cc(F)cc43)C2)on1 [Compound 37] | > 1 µM
13 | Cn1cc(CNC(=O)[C@H]2C[C@H](c3c(-c4ccc(F)cc4)[nH]c4c(F)cc(F)cc43)C2)cn1 [Compound 38] | > 1 µM
14 | O=C(NCCn1cnnc1)[C@H]1C[C@H](c2c(-c3ccc(F)cc3)[nH]c3c(F)cc(F)cc32)C1 [Compound 39] | > 1 µM
15 | Cn1cncc1CNC(=O)[C@H]1C[C@H](c2c(-c3ccc(F)cc3)[nH]c3c(F)cc(F)cc32)C1 [Compound 174] | > 1 µM
16 | O=C(N[C@H]1CC[C@@H]1O)[C@H]1C[C@H](c2c(-c3ccc(F)cc3)[nH]c3c(F)cc(F)cc32)C1 [Compound 178] | > 1 µM
17 | O=C(N[C@@H]1CCC[C@@H]1O)[C@H]1C[C@H](c2c(-c3ccc(F)cc3)[nH]c3c(F)cc(F)cc32)C1 [Compound 179] | > 1 µM
18 | O=C(N[C@@H]1CCC[C@H]1O)[C@H]1C[C@H](c2c(-c3ccc(F)cc3)[nH]c3c(F)cc(F)cc32)C1 [Compound 182] | > 1 µM
19 | O=C1OCC[C@@H]1NC(=O)[C@H]1C[C@H](c2c(-c3ccc(F)cc3)[nH]c3c(F)cc(F)cc32)C1 [Compound 188] | 0.25 to 1 µM
20 | O=C(NC[C@H]1CC[C@@H](CO)O1)[C@H]1C[C@H](c2c(-c3ccc(F)cc3)[nH]c3c(F)cc(F)cc32)C1 [Compound 189] | > 1 µM
21 | CC(C#N)(CO)NC(=O)[C@H]1C[C@H](c2c(-c3ccc(F)cc3)[nH]c3c(F)cc(F)cc32)C1 (stereo partly shown) [Compound 191] | 0.25 to 1 µM
22 | O=C([C@H]1C[C@H](c2c(-c3ccc(F)cc3)[nH]c3c(F)cc(F)cc32)C1)N1CCC[C@@H]1CO [Compound 192] | > 1 µM
23 | C#CC(CO)NC(=O)[C@H]1C[C@H](c2c(-c3ccc(F)cc3)[nH]c3c(F)cc(F)cc32)C1 (stereo partly shown) [Compound 196] | 0.25 to 1 µM
24 | Cn1ncc(CNC(=O)[C@H]2C[C@H](c3c(-c4ccc(F)cc4)[nH]c4c(F)cc(F)cc43)C2)n1 [Compound 198] | 0.25 to 1 µM
25 | O=C(NC(CO)C1CC1)[C@H]1C[C@H](c2c(-c3ccc(F)cc3)[nH]c3c(F)cc(F)cc32)C1 (stereo partly shown) [Compound 199] | 0.25 to 1 µM
26 | O=C(NC1(CO)CC(F)(F)C1)[C@H]1C[C@H](c2c(-c3ccc(F)cc3)[nH]c3c(F)cc(F)cc32)C1 [Compound 202] | 0.25 to 1 µM
27 | CC[C@H](CO)NC(=O)[C@H]1C[C@H](c2c(-c3ccc(F)cc3)[nH]c3c(F)cc(F)cc32)C1 [Compound 203] | 0.25 to 1 µM
28 | CC[C@@H](CO)NC(=O)[C@H]1C[C@H](c2c(-c3ccc(F)cc3)[nH]c3c(F)cc(F)cc32)C1 [Compound 204] | 0.25 to 1 µM
29 | CN(C(=O)[C@H]1C[C@H](c2c(-c3ccc(F)cc3)[nH]c3c(F)cc(F)cc32)C1)C1COCC1O (stereo partly shown) [Compound 205] | > 1 µM
30 | O=C([C@H]1C[C@H](c2c(-c3ccc(F)cc3)[nH]c3c(F)cc(F)cc32)C1)N1CC[C@H]1CO [Compound 206] | 0.25 to 1 µM

More lines, now with the values ahead:

Row | IC50 | SMILES
31 | < 0.25 µM | CC(CO)NC(=O)[C@H]1C[C@H](c2c(-c3ccc(F)cc3)[nH]c3c(F)cc(F)cc32)C1 (mixture of isomers) [Compound 13]
32 | 0.25 to 1 µM | CC(CO)N(C)C(=O)[C@H]1C[C@H](c2c(-c3ccc(F)cc3)[nH]c3c(F)cc(F)cc32)C1 (mixture of isomers) [Compound 193]
33 | 0.25 to 1 µM | CC1(NC(=O)[C@H]2C[C@H](c3c(-c4ccc(F)cc4)[nH]c4c(F)cc(F)cc43)C2)CCNC1=O (mixture of isomers) [Compound 197]
34 | 0.25 to 1 µM | CC1(CO)CCN1C(=O)[C@H]1C[C@H](c2c(-c3ccc(F)cc3)[nH]c3c(F)cc(F)cc32)C1 (mixture of isomers) [Compound 218]
35 | 0.25 to 1 µM | O=C(NCC(O)CO)[C@H]1C[C@H](c2c(-c3ccc(F)cc3)[nH]c3c(F)cc(F)cc32)C1 (stereo partly shown) [Compound 14]
36 | < 0.25 µM | C[C@H](O)[C@@H](CO)NC(=O)[C@H]1C[C@H](c2c(-c3ccc(F)cc3)[nH]c3c(F)cc(F)cc32)C1 [Compound 16]
37 | 0.25 to 1 µM | Cc1cc(NC(=O)[C@H]2C[C@H](c3c(-c4ccc(F)cc4)[nH]c4c(F)cc(F)cc43)C2)no1 [Compound 17]
38 | 0.25 to 1 µM | O=C(N[C@@H]1CCOC1)[C@H]1C[C@H](c2c(-c3ccc(F)cc3)[nH]c3c(F)cc(F)cc32)C1 [Compound 19]
39 | 0.25 to 1 µM | O=C1NCCCC1NC(=O)[C@H]1C[C@H](c2c(-c3ccc(F)cc3)[nH]c3c(F)cc(F)cc32)C1 (stereo partly shown) [Compound 23]
40 | 0.25 to 1 µM | O=C1CCC(NC(=O)[C@H]2C[C@H](c3c(-c4ccc(F)cc4)[nH]c4c(F)cc(F)cc43)C2)C(=O)N1 (stereo partly shown) [Compound 26]
41 | 0.25 to 1 µM | C[C@@H](NC(=O)[C@H]1C[C@H](c2c(-c3ccc(F)cc3)[nH]c3c(F)cc(F)cc32)C1)C(N)=O [Compound 28]
42 | < 0.25 µM | CC(C)(CO)NC(=O)[C@H]1C[C@H](c2c(-c3ccc(F)cc3)[nH]c3c(F)cc(F)cc32)C1 [Compound 31]
43 | < 0.25 µM | NC(=O)C(CO)NC(=O)[C@H]1C[C@H](c2c(-c3ccc(F)cc3)[nH]c3c(F)cc(F)cc32)C1 (stereo partly shown) [Compound 32]
44 | 0.25 to 1 µM | O=C(NCC(F)(F)F)[C@H]1C[C@H](c2c(-c3ccc(F)cc3)[nH]c3c(F)cc(F)cc32)C1 [Compound 33]
45 | < 0.25 µM | O=C(NCCn1cncn1)[C@H]1C[C@H](c2c(-c3ccc(F)cc3)[nH]c3c(F)cc(F)cc32)C1 [Compound 36]
46 | 0.25 to 1 µM | CS(=O)(=O)CCNC(=O)[C@H]1C[C@H](c2c(-c3ccc(F)cc3)[nH]c3c(F)cc(F)cc32)C1 [Compound 40]

Row | IC50 | SMILES
47 | 0.25 to 1 µM | O=C(NCc1nnco1)[C@H]1C[C@H](c2c(-c3ccc(F)cc3)[nH]c3c(F)cc(F)cc32)C1 [Compound 171]
48 | 0.25 to 1 µM | Cc1nnc(CNC(=O)[C@H]2C[C@H](c3c(-c4ccc(F)cc4)[nH]c4c(F)cc(F)cc43)C2)o1 [Compound 172]
49 | < 0.25 µM | Cc1noc(CNC(=O)[C@H]2C[C@H](c3c(-c4ccc(F)cc4)[nH]c4c(F)cc(F)cc43)C2)n1 [Compound 173]
50 | 0.25 to 1 µM | C[C@@H](O)CNC(=O)[C@H]1C[C@H](c2c(-c3ccc(F)cc3)[nH]c3c(F)cc(F)cc32)C1 [Compound 175]
51 | 0.25 to 1 µM | O=C(NC[C@H](O)C(F)(F)F)[C@H]1C[C@H](c2c(-c3ccc(F)cc3)[nH]c3c(F)cc(F)cc32)C1 [Compound 176]
52 | 0.25 to 1 µM | O=C(NC[C@@H](O)C(F)(F)F)[C@H]1C[C@H](c2c(-c3ccc(F)cc3)[nH]c3c(F)cc(F)cc32)C1 [Compound 177]
53 | 0.25 to 1 µM | O=C(N[C@H]1CC[C@H]1O)[C@H]1C[C@H](c2c(-c3ccc(F)cc3)[nH]c3c(F)cc(F)cc32)C1 [Compound 181]
54 | 0.25 to 1 µM | O=C(NCC1(O)CC1)[C@H]1C[C@H](c2c(-c3ccc(F)cc3)[nH]c3c(F)cc(F)cc32)C1 [Compound 183]
55 | 0.25 to 1 µM | O=C(N[C@H]1COC[C@@H]1O)[C@H]1C[C@H](c2c(-c3ccc(F)cc3)[nH]c3c(F)cc(F)cc32)C1 [Compound 184]
56 | 0.25 to 1 µM | O=C(NCC1(O)COC1)[C@H]1C[C@H](c2c(-c3ccc(F)cc3)[nH]c3c(F)cc(F)cc32)C1 [Compound 185]
57 | < 0.25 µM | CC(CO)(CO)NC(=O)[C@H]1C[C@H](c2c(-c3ccc(F)cc3)[nH]c3c(F)cc(F)cc32)C1 [Compound 186]
58 | < 0.25 µM | O=C(NC1(CO)CCOC1)[C@H]1C[C@H](c2c(-c3ccc(F)cc3)[nH]c3c(F)cc(F)cc32)C1 (stereo partly shown) [Compound 194]
59 | < 0.25 µM | O=C([C@H]1C[C@H](c2c(-c3ccc(F)cc3)[nH]c3c(F)cc(F)cc32)C1)N1CC[C@@H]1CO [Compound 195]
60 | < 0.25 µM | C[C@@H](CO)NC(=O)[C@H]1C[C@H](c2c(-c3ccc(F)cc3)[nH]c3c(F)cc(F)cc32)C1 [Compound 200]
61 | < 0.25 µM | N#CC(CO)NC(=O)[C@H]1C[C@H](c2c(-c3ccc(F)cc3)[nH]c3c(F)cc(F)cc32)C1 (stereo partly shown) [Compound 201]
